Test results reported in patent US20210330611A1, “THERAPY FOR NEUROLOGICAL DISEASES/DISORDERS” (priority 2020, published 2021).
Counter-ions that a name gives are not always drawn. Like-named read-outs stand apart in the source and are kept apart here.

Columns and labels:
[1] = test system: fibrin-induced microglia activation; assay: Image-based assay of fibrin-induced microglia activation (HTS and dose response); format: cell-based, rat; conditions: for inhibition at 10 µM: Rattus norvegicus, Microglia, read-out: Fibrin % inhibition
[2] = test system: LPS-induced microglia activation; assay: Image-based assay of LPS-induced microglia activation (HTS and dose response); format: cell-based, rat; conditions: for inhibition at 10 µM: Rattus norvegicus, Microglia, read-out: LPS % inhibition
[3] = test system: fibrin- and LPS-induced microglia activation; assay: cells; format: cell-based, rat
primary rat microglia [4] = test system: primary rat microglia;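 for Fibrin % cell toxicity: share of dead cells sized under 150 µm2 at 10 µM in fibrin-stimulated microglia HTS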
primary rat microglia [5] = test system: primary rat microglia; remark: listed apart in the source;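 for Fibrin % cell toxicity: share of dead cells sized under 150 µm2 at 10 µM in fibrin-stimulated microglia HTS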
[6] = primary microglia HTS, fibrin stimulation, compounds at 10 μM
[7] = primary microglia HTS, LPS stimulation, compounds at 10 μM
[8] = quadrant by fibrin and LPS inhibition, HTS at 10 μM
[9] = primary HTS, 10 μM, fibrin-stimulated primary microglia
[10] = primary HTS, 10 μM, LPS-stimulated primary microglia

SMILES	Quadrant (FIG. 5b) [3]	Fibrin % cell toxicity (primary rat microglia [4]; rat)	LPS % cell toxicity (primary rat microglia [5]; rat)	inhibition at 10 µM [1, 6]	inhibition at 10 µM [2, 7]	Quadrant (FIG. 5b) [3, 8]	Quadrant (FIG. 5b) ([3]; primary HTS, 10 μM)	other results
Cn1c(=O)c2[nH]cnc2n(C)c1=O [Aminophylline, Theophylline]	Q4							Fibrin % inhibition ([1]; 10 µM): 35%; LPS % inhibition ([2]; 10 µM): 25%; Fibrin % cell toxicity (primary rat microglia [4]): 1%; LPS % cell toxicity (primary rat microglia [5]): 0%
CN(C)CCC=C1c2ccccc2CCc2ccccc21 [Amitriptyline]	Q4	1%	1%					inhibition at 10 µM [1]: 14%; inhibition at 10 µM [2]: 30%
CCOC(=O)OC(C)OC1=C(C(=O)Nc2ccccn2)N(C)S(=O)(=O)c2ccccc21 (stereo not shown) [Ampiroxicam]		1%	0%	-9%	14%	Q4		
CC(C)CN(C[C@@H](O)[C@H](Cc1ccccc1)NC(=O)O[C@H]1CCOC1)S(=O)(=O)c1ccc(N)cc1 [Amprenavir]		1%	0%	-10%	6%	Q4		
CN(C)c1cnccn1.O=S(=O)(O)O [Ampyzine Sulfate]	Q4							Fibrin % inhibition ([1]; 10 µM): −18%; LPS % inhibition ([2]; 10 µM): 11%; Fibrin % cell toxicity (primary rat microglia [4]): 0%; LPS % cell toxicity (primary rat microglia [5]): 1%
COc1cc(NS(C)(=O)=O)ccc1Nc1c2ccccc2nc2ccccc12 [Amsacrine]		3%	54%					inhibition at 10 µM ([1]; primary microglia HTS, fibrin stimulation, increased cell size (>800 μm^2) as marker of activation): 70%; inhibition at 10 µM ([2]; 48 h, primary microglia HTS, LPS stimulation, increased cell size (>800 μm^2) as marker of activation): 120%; Quadrant (FIG. 5b) ([3]; quadrant by fibrin and LPS inhibition in HTS of 1907 compounds): Q2
CC(C)(C#N)c1cc(Cn2cncn2)cc(C(C)(C)C#N)c1 [Anastrozole]		1%	0%	31%	16%	Q4		
N=c1ccn2c(n1)O[C@H]1[C@H](O)[C@@H](CO)O[C@H]12 [Ancitabine Hydrochloride]		1%	1%	-4%	27%	Q4		
Cl.N=C(N)NCCC[C@H](N)C(=O)O [Arginine Hydrochloride]		0%	2%	9%	42%	Q4		
CCCCCCCCCCCCCCCC(=O)OC[C@H](O)[C@H]1OC(=O)C(O)=C1O [Ascorbyl Palmitate]		1%	0%	38%	20%	Q4		
Cn1cnc([N+](=O)[O-])c1Sc1ncnc2nc[nH]c12 [Azathioprine]	Q4	0%	0%					inhibition at 10 µM [1]: -14%; inhibition at 10 µM [2]: 16%
CC[C@H]1OC(=O)[C@H](C)[C@@H](O[C@H]2C[C@@](C)(OC)[C@@H](O)[C@H](C)O2)[C@H](C)[C@@H](O[C@@H]2O[C@H](C)C[C@H](N(C)C)[C@H]2O)[C@](C)(O)C[C@@H](C)CN(C)[C@H](C)[C@@H](O)[C@]1(C)O [Azithromycin]		0%	0%	-16%	11%	Q4		
NC(CO)C(=O)NNCc1ccc(O)c(O)c1O (stereo not shown) [Benserazide]		0%	0%	-16%	8%	Q4		
CCOC(=O)c1ccc(N)cc1 [Benzocaine]		1%	0%	-24%	7%	Q4		
O=C(O)c1ccccc1 [Benzoic Acid]	Q4	0%	0%					inhibition at 10 µM [1]: -6%; inhibition at 10 µM [2]: 6%
O=C(Nc1ccc(C(=O)O)c(O)c1)c1ccccc1 [Benzoylpas]	Q2	4%	2%					inhibition at 10 µM [1]: 107%; inhibition at 10 µM ([2]; 48 h): 87%
CN1[C@@H]2CC[C@H]1C[C@@H](OC(c1ccccc1)c1ccccc1)C2 [Benztropine]	Q4	1%	0%					inhibition at 10 µM [1]: -7%; inhibition at 10 µM [2]: 30%
O=C(OCc1ccccc1)c1ccccc1 [Benzyl Benzoate]		1%	1%				Q4	inhibition at 10 µM [1, 9]: 35%; inhibition at 10 µM [2, 10]: 32%
CC(C)COCC(CN(Cc1ccccc1)c1ccccc1)N1CCCC1 (stereo not shown) [Bepridil]		1%	0%				Q4	inhibition at 10 µM [1, 9]: 1%; inhibition at 10 µM [2, 10]: 15%
COc1ccc2cc3[n+](cc2c1OC)CCc1cc2c(cc1-3)OCO2 [Berberine]		0%	0%				Q4	inhibition at 10 µM [1, 9]: -62%; inhibition at 10 µM [2, 10]: 4%
Oc1ccc2ccccc2c1 [Beta-naphthol]	Q4	0%	0%					inhibition at 10 µM [1]: -17%; inhibition at 10 µM [2]: 15%
CCC(=O)OCC(=O)[C@@]1(OC(=O)CC)[C@@H](C)C[C@H]2[C@@H]3CCC4=CC(=O)C=C[C@]4(C)[C@@]3(F)[C@@H](O)C[C@@]21C [Betamethasone 17,21-dipropionate]							Q4	Fibrin % inhibition [1, 9]: 21%; LPS % inhibition [2, 10]: 29%; Fibrin % cell toxicity (primary rat microglia [4]): 1%; LPS % cell toxicity (primary rat microglia [5]): 0%
CC(C[N+](C)(C)C)OC(N)=O (stereo not shown) [Bethanechol]		1%	0%				Q4	inhibition at 10 µM [1, 9]: 14%; inhibition at 10 µM [2, 10]: 15%
C=C(c1ccc(C(=O)O)cc1)c1cc2c(cc1C)C(C)(C)CCC2(C)C [Bexarotene]		1%	1%				Q4	inhibition at 10 µM [1, 9]: -3%; inhibition at 10 µM [2, 10]: 10%
c1ccc(-c2ccc(C(c3ccccc3)n3ccnc3)cc2)cc1 (stereo not shown) [Bifonazole]	Q4	1%	0%					inhibition at 10 µM [1]: -3%; inhibition at 10 µM [2]: 14%
O=C(O)CCCC[C@@H]1SC[C@@H]2NC(=O)N[C@@H]21 [Biotin]	Q4	1%	0%					inhibition at 10 µM [1]: 24%; inhibition at 10 µM [2]: 12%
CC(=O)Oc1ccc(C(c2ccc(OC(C)=O)cc2)c2ccccn2)cc1 [Bisacodyl]		0%	0%				Q4	inhibition at 10 µM [1, 9]: 10%; inhibition at 10 µM [2, 10]: 8%
Oc1c(Cl)cc(Cl)cc1Sc1cc(Cl)cc(Cl)c1O [Bithionol]		1%	0%				Q4	inhibition at 10 µM [1, 9]: 11%; inhibition at 10 µM [2, 10]: 14%
CC(=O)OC1CC2CCC1(C)C2(C)C (stereo not shown) [Bornyl Acetate]		0%	0%				Q4	inhibition at 10 µM [1, 9]: -38%; inhibition at 10 µM [2, 10]: 2%
